Data published in publication PMC10620772, “Design, synthesis, and biological evaluation of new pyrimidine-5-carbonitrile derivatives as novel anti-cancer, dual EGFR^WT/COX-2 inhibitors with docking studies” (RSC Advances, 2023).

What was measured:
Assay type in all cases: cell-based, human
SF-539 = assay: NCI60 antitumor screening; conditions: 10 μM one-dose
HOP-62 = assay: NCI60 antitumor screening; conditions: 10 μM one-dose
NCI-H522 = assay: NCI60 antitumor screening; conditions: 10 μM one-dose
MDA-MB-435 = assay: NCI60 antitumor screening; conditions: 10 μM one-dose
SK-MEL-5 = assay: NCI60 antitumor screening; conditions: 10 μM one-dose
RPMI-8226 = assay: NCI60 antitumor screening; conditions: 10 μM one-dose
M14 = assay: NCI60 antitumor screening; conditions: 10 μM one-dose
EKVX = assay: NCI60 antitumor screening; conditions: 10 μM one-dose
CAKI-1 = assay: NCI60 antitumor screening; conditions: 10 μM one-dose
K-562 = assay: NCI60 antitumor screening; conditions: 10 μM one-dose
UACC-257 = assay: NCI60 antitumor screening; conditions: 10 μM one-dose
OVCAR-3 = assay: NCI60 antitumor screening; conditions: 10 μM one-dose
KM12 = assay: NCI60 antitumor screening; conditions: 10 μM one-dose
OVCAR-5 = assay: NCI60 antitumor screening; conditions: 10 μM one-dose
SW-620 = assay: NCI60 antitumor screening; conditions: 10 μM one-dose
SK-MEL-28 = assay: NCI60 antitumor screening; conditions: 10 μM one-dose
SNB-19 = assay: NCI60 antitumor screening; conditions: 10 μM one-dose
SNB-75 = assay: NCI60 antitumor screening; conditions: 10 μM one-dose
OVCAR-4 = assay: NCI60 antitumor screening; conditions: 10 μM one-dose
OVCAR-8 = assay: NCI60 antitumor screening; conditions: 10 μM one-dose
NCI-H460 = assay: NCI60 antitumor screening; conditions: 10 μM one-dose
A549/ATCC = assay: NCI60 antitumor screening; conditions: 10 μM one-dose
TK-10 = assay: NCI60 antitumor screening; conditions: 10 μM one-dose
HCC-2998 = assay: NCI60 antitumor screening; conditions: 10 μM one-dose
RXF 393 = assay: NCI60 antitumor screening; conditions: 10 μM one-dose
IGROV1 = assay: NCI60 antitumor screening; conditions: 10 μM one-dose
786–0 = assay: NCI60 antitumor screening; conditions: 10 μM one-dose
BT-549 = assay: NCI60 antitumor screening; conditions: 10 μM one-dose
NCI60 cell lines panel = assay: NCI60 antitumor screening, full panel; conditions: 10 μM one-dose, mean over NCI60
Procedure: The National Cancer Institute (NCI), Bethesda, Maryland, United States, selected all of the novel synthesized compounds (2b–d, 3a–d and 4a–p) for in vitro antitumor screening at a single concentration of 10 μM toward the NCI60 cell lines panel covering leukaemia, non-small cell lungs, colon, central nervous system (CNS), melanoma, ovarian, renal, prostate, and breast cancer cells.[32–35] The data were reported as a mean graph of the percent growth of the treated cell lines and expressed as percentage growth inhibition (GI%) in Table 1 and ESI 1.
(2) The molar concentration of the compound responsible for total growth inhibition, also known as total growth inhibition (TGI).
Regarding subpanel selectivity toward certain cancer type, the method of determining a compound's selectivity index is to divide the full panel MG-MID (μM) value by each single subpanel. Values above six indicate high selectivity against the subpanel; moderate selectivity is denoted by values between three and six. Conversely, compounds are termed nonselective if their selectivity is less than three.[30,37]

UO-31 = assay: NCI60 antitumor screening; conditions: 10 μM one-dose
MCF7 = assay: NCI60 antitumor screening; conditions: 10 μM one-dose
SK-OV-3 = assay: NCI60 antitumor screening; conditions: 10 μM one-dose
HCT-15 = assay: NCI60 antitumor screening; conditions: 10 μM one-dose
PC-3 = assay: NCI60 antitumor screening; conditions: 10 μM one-dose
NCI-H226 = assay: NCI60 antitumor screening; conditions: 10 μM one-dose
SF-268 = assay: NCI60 antitumor screening; conditions: 10 μM one-dose
HCT-116 = assay: NCI60 antitumor screening; conditions: 10 μM one-dose
MDA-MB-231/ATCC = assay: NCI60 antitumor screening; conditions: 10 μM one-dose
MALME-3M = assay: NCI60 antitumor screening; conditions: 10 μM one-dose
A498 = assay: NCI60 antitumor screening; conditions: 10 μM one-dose
HL-60(TB) = assay: NCI60 antitumor screening; conditions: 10 μM one-dose
DU-145 = assay: NCI60 antitumor screening; conditions: 10 μM one-dose
T-47D = assay: NCI60 antitumor screening; conditions: 10 μM one-dose
HS 578T = assay: NCI60 antitumor screening; conditions: 10 μM one-dose
U251 = assay: NCI60 antitumor screening; conditions: 10 μM one-dose
NCI-H23 = assay: NCI60 antitumor screening; conditions: 10 μM one-dose
CCRF-CEM = assay: NCI60 antitumor screening; conditions: 10 μM one-dose
LOX IMVI = assay: NCI60 antitumor screening; conditions: 10 μM one-dose
ACHN = assay: NCI60 antitumor screening; conditions: 10 μM one-dose
MOLT-4 = assay: NCI60 antitumor screening; conditions: 10 μM one-dose
NCI/ADR-RES = assay: NCI60 antitumor screening; conditions: 10 μM one-dose
HT29 = assay: NCI60 antitumor screening; conditions: 10 μM one-dose
MDA-MB-468 = assay: NCI60 antitumor screening; conditions: 10 μM one-dose
SN12C = assay: NCI60 antitumor screening; conditions: 10 μM one-dose
HOP-92 = assay: NCI60 antitumor screening; conditions: 10 μM one-dose
SF-295 = assay: NCI60 antitumor screening; conditions: 10 μM one-dose
NCI-H322M = assay: NCI60 antitumor screening; conditions: 10 μM one-dose
SR = assay: NCI60 antitumor screening; conditions: 10 μM one-dose
UACC-62 = assay: NCI60 antitumor screening; conditions: 10 μM one-dose
COLO 205 = assay: NCI60 antitumor screening; conditions: 10 μM one-dose
SK-MEL-2 = assay: NCI60 antitumor screening; conditions: 10 μM one-dose

N#Cc1c(-c2ccc(F)cc2)nc(SCc2ccc([N+](=O)[O-])cc2)[nH]c1=O [2c, 4-(4-Fluorophenyl)-2-((4-nitrobenzyl)thio)-6-oxo-1,6-dihydropyrimidine-5-carbonitrile]
GI% (SF-539): — (GI% < 10) | GI% (HOP-62): — (GI% < 10) | GI% (NCI-H522): 30.52% | GI% (MDA-MB-435): — (GI% < 10) | GI% (SK-MEL-5): 11.85% | GI% (RPMI-8226): 14.16% | GI% (M14): — (GI% < 10) | GI% (EKVX): 12.04% | GI% (CAKI-1): 10.99% | GI% (K-562): 31.45% | GI% (UACC-257): — (GI% < 10) | GI% (OVCAR-3): — (GI% < 10) | GI% (KM12): — (GI% < 10) | GI% (OVCAR-5): — (GI% < 10) | GI% (SW-620): 10.78% | GI% (SK-MEL-28): — (GI% < 10) | GI% (SNB-19): — (GI% < 10) | GI% (SNB-75): — (GI% < 10) | GI% (OVCAR-4): — (GI% < 10) | GI% (OVCAR-8): — (GI% < 10) | GI% (NCI-H460): — (GI% < 10) | GI% (A549/ATCC): — (GI% < 10) | GI% (TK-10): — (GI% < 10) | GI% (HCC-2998): — (GI% < 10) | GI% (RXF 393): — (GI% < 10) | GI% (IGROV1): — (GI% < 10) | GI% (786–0): — (GI% < 10) | GI% (BT-549): — (GI% < 10) | Mean GI% (NCI60 cell lines panel): — (GI% < 10) | GI% (UO-31): 11.53% | GI% (MCF7): — (GI% < 10) | GI% (SK-OV-3): — (GI% < 10) | GI% (HCT-15): 13.42% | GI% (PC-3): 18.97% | GI% (NCI-H226): 22.53% | GI% (SF-268): — (GI% < 10) | GI% (HCT-116): 22.23% | GI% (MDA-MB-231/ATCC): — (GI% < 10) | GI% (MALME-3M): — (GI% < 10) | GI% (A498): — (GI% < 10) | GI% (HL-60(TB)): 49.95% | GI% (DU-145): — (GI% < 10) | GI% (T-47D): 23.03% | GI% (HS 578T): — (GI% < 10) | GI% (U251): 13.78% | GI% (NCI-H23): — (GI% < 10) | GI% (CCRF-CEM): 15.45% | GI% (LOX IMVI): 14.24% | GI% (ACHN): — (GI% < 10) | GI% (MOLT-4): 24.34% | GI% (NCI/ADR-RES): 12.03% | GI% (HT29): 37.56% | GI% (MDA-MB-468): — (GI% < 10) | GI% (SN12C): 14.07% | GI% (HOP-92): 33.01% | GI% (SF-295): 10.37% | GI% (NCI-H322M): — (GI% < 10) | GI% (SR): — (GI% < 10) | GI% (UACC-62): 11.42% | GI% (COLO 205): — (GI% < 10) | GI% (SK-MEL-2): — (GI% < 10)

N#Cc1c(-c2ccc(F)cc2)nc(SCc2ccc([N+](=O)[O-])cc2)nc1N1CCOCC1 [4c, 4-(4-Fluorophenyl)-6-morpholino-2-((4-nitrobenzyl)thio) pyrimidine-5-carbonitrile]
GI% (SF-539; Table 1): 73.77% | GI% (HOP-62): 65.34% | GI% (HOP-62; Table 1): — (GI value > 70%) | GI% (NCI-H522): 58.72% | GI% (MDA-MB-435): 16.03% | GI% (SK-MEL-5): 38.14% | GI% (RPMI-8226): 19.73% | GI% (M14): 12.25% | GI% (EKVX): 60.74% | GI% (CAKI-1): 64.15% | GI% (K-562): 23.12% | GI% (K-562; Table 1): — (GI value > 70%) | GI% (UACC-257): 45.85% | GI% (OVCAR-3): 30.28% | GI% (KM12): 15.07% | GI% (OVCAR-5): — (GI% < 10) | GI% (SW-620): 19.46% | GI% (SK-MEL-28): 17.90% | GI% (SNB-19): 53.96% | GI% (SNB-75; Table 1): 92.38% | GI% (OVCAR-4): 42.76% | GI% (OVCAR-4; Table 1): — (GI value > 70%) | GI% (OVCAR-8): 46.89% | GI% (NCI-H460): 22.56% | GI% (A549/ATCC): 36.61% | GI% (TK-10): 15.83% | GI% (HCC-2998): — (GI% < 10) | GI% (RXF 393; Table 1): 90.21% | GI% (IGROV1): 19.45% | GI% (786–0): 69.78% | GI% (786–0; Table 1): — (GI value > 70%) | GI% (BT-549): 41.46% | Mean GI% (NCI60 cell lines panel): 39.54% | GI% (UO-31): 49.11% | GI% (MCF7): 41.49% | GI% (SK-OV-3): 55.46% | GI% (HCT-15): 27.19% | GI% (PC-3): 40.85% | GI% (NCI-H226; Table 1): 76.22% | GI% (SF-268): 50.66% | GI% (HCT-116): 35.64% | GI% (MDA-MB-231/ATCC): 52.93% | GI% (MALME-3M): 57.24% | GI% (A498): 35.57% | GI% (HL-60(TB)): 17.28% | GI% (DU-145): 26.65% | GI% (T-47D): 44.55% | GI% (HS 578T; Table 1): 84.42% | GI% (U251): 44.68% | GI% (NCI-H23): 25.17% | GI% (CCRF-CEM): 22.80% | GI% (LOX IMVI): 15.29% | GI% (ACHN): 48.98% | GI% (MOLT-4): 26.34% | GI% (NCI/ADR-RES): 58.37% | GI% (HT29): 13.41% | GI% (MDA-MB-468): 49.44% | GI% (SN12C): 25.44% | GI% (HOP-92): 63.28% | GI% (SF-295): 58.52% | GI% (NCI-H322M): 17.30% | GI% (SR; Table 1): — (GI value > 70%) | GI% (UACC-62): 37.29% | GI% (COLO 205): — (GI% < 10) | GI% (SK-MEL-2): 12.63%
